Data published in PMC8566451, “Lead optimization of novel quinolone chalcone compounds by a structure–activity relationship (SAR) study to increase efficacy and metabolic stability” (Scientific Reports, 2021).

Legend:
Assay in all cases: Sulforhodamine B (SRB) assay
Format in all cases: cell-based
HeLa = conditions: Homo sapiens; for IC50: HeLa, Supplementary Table S1, SRB; for GI50: HeLa cervical cancer cells, 48 h, SRB
Experimental: (§1) The human MDA-MB-231, MCF7, MDA-MB-468, RPMI-8226 and HeLa cell lines were purchased from ATCC and maintained in Dulbecco's Modified Eagle Medium (DMEM)—high glucose supplemented with 10% fetal bovine serum (FBS) and antibiotics/antimycotics. Cell line authentication was carried out by Genetica DNA Laboratories (Burlington, NC) using a short tandem repeat (STR) profiling method (March 2015; July 2015; September 2016). Melanoma cells E-055 (MZ-Mel-3), E-097 (Mel-SOE), E-112 (UKRV-Mel-38), E-157 (UKRV-Mel-17) were obtained from the European Searchable Tumour Line Database (ESTDAB) cell bank (a kind gift of Dr. Graham Pawelec, Tubingen University, Germany). MDA-MB-435 was purchased from the Division of Cancer Treatment and Diagnosis Tumor Repository. All melanoma cells were cultured in Roswell Park Memorial Institute (RPMI) medium supplemented with 10% FBS and P/S/antimycotics. Primary human epidermal melanocytes from normal adult abdominal skin were purchased from ATCC (cat # PCS-200–013) and Cell Applications (cat#104-05a). The melanocytes were cultured in the media supplied by the companies.
(§2) The SRB assay was used to assess drug-induced cytotoxicity and cell proliferation as previously described[2],[33],[34] with a few modifications. Briefly, cells were plated 10,000 to 25,000 cells/cm^2 in 96-well plates (100 µl medium) and allowed to adhere overnight. The cell counts were different for each cell line to ensure optimal cell growth for the duration of the assay. Eight different concentrations of compound solutions using 2–4 times serial dilutions (100 µl). Cells were then incubated for an additional 48 h and then fixed with 100 µl ice-cold 10% (w/v) trichloroacetic acid (TCA) (without removing the cell medium, final concentration, 3.3% of TCA) and stained with 0.4% SRB (w/v) in 1% acetic acid (v/v). The relative growth rate (%) was calculated for each of the compound concentrations according to the following formula: 100 * (T − T0)/(C − T0), in which T is the optical density (OD) after exposure to a certain concentration of the compound after 48 h, T0 is the OD at the start of drug exposure (time zero) and C is the control growth. The GI50 for each compound was obtained from a non-linear sigmoidal dose–response (variable slope) curve fitted by GraphPad Prism v.4.03 software.

MCF7 = conditions: Homo sapiens; for IC50: MCF7, Supplementary Table S1, SRB; for GI50: MCF7 breast cancer cells, 48 h, SRB
Experimental: as §1, §2

MDA-MB231 = conditions: Homo sapiens, MDA-MB-231; for GI50: MDA-MB231 breast cancer cells, 48 h, SRB; for IC50: Supplementary Table S1, SRB
Experimental: as §1, §2

MDA-MB435 = conditions: Homo sapiens, MDA-MB-435, MDA-MB435 cells, 48 h
Experimental: as §1, §2

MDA-MB468 = conditions: Homo sapiens, MDA-MB-468, MDA-MB468 breast cancer cells, 48 h
Experimental: as §1, §2

MZ-Mel-3 = MZ-Mel-3 melanoma cells, 48 h
Experimental: as §1, §2

Mel-SOE = Mel-SOE melanoma cells, 48 h
Experimental: as §1, §2

RPMI-8226 = conditions: Homo sapiens, Supplementary Table S1, SRB
Experimental: as §1, §2

UKRV-Mel-17 = UKRV-Mel-17 melanoma cells, 48 h
Experimental: as §1, §2

UKRV-Mel-38 = UKRV-Mel-38 melanoma cells, 48 h
Experimental: as §1, §2

MDA-MB231-TaxR = conditions: Homo sapiens, MDA-MB231-TaxR paclitaxel-resistant breast cancer cells, 48 h
Source text: We had initially determined that quinolone chalcones were promising anti-proliferative through a first round screening and identified CTR-17 and CTR-20 as favorable structures for anticancer activity. […] We carried out a comparative SAR study to determine if we could further optimize the quinolone chalcone to maximize efficacy. The Sulforhodamine B (SRB) assay was used to measure the anti-proliferative/cell killing activities of CTRs, for which several different cell lines were use: the cervical cancer HeLa, the breast cancer cell lines MDA-MB231, MDA-MB468, MDA-MB231TaxR (an induced paclitaxel-resistant sub-cell line of the MDA-MB231[9]) and MCF7. In addition, a subset was tested against the melanoma cell lines MZ-MEL-3.1, Mel-SOE, UKRV-Mel-38, UKRV-Mel-17 and MDA-MB-435 (Table 1, Supplemental Table S1).
as §2

SMILES	IC50 (HeLa)	GI50 (HeLa)	IC50 (MCF7)	GI50 (MCF7)	GI50 (MDA-MB231)	IC50 (MDA-MB231)	GI50 (MDA-MB435)	GI50 (MDA-MB468)	GI50 (MZ-Mel-3)	GI50 (Mel-SOE)	IC50 (RPMI-8226)	GI50 (UKRV-Mel-17)	GI50 (UKRV-Mel-38)	GI50 (MDA-MB231-TaxR)
COc1ccccc1C(=O)/C=C/c1cc2cccc(OC)c2[nH]c1=O [CTR-21, (E)-8-methoxy-3-(3-(2-methoxyphenyl)-3-oxoprop-1-enyl) quinolin-2(1H)-one]	11.9 ± 1.4 nM	8 ± 3 nM	75.1 ± 3.07 nM	16 ± 5 nM	17 ± 3 nM	56.9 ± 10.5 nM	7 ± 2 nM	29 ± 10 nM	6 ± 1 nM	27 ± 5 nM	5.34 ± 0.89 nM	9 ± 2 nM	13 ± 3 nM	32 ± 8 nM
CCOc1ccccc1C(=O)/C=C/c1cc2ccccc2[nH]c1=O [CTR-32, (E)-3-(3-(2-ethoxyphenyl)-3-oxoprop-1-enyl)quinolin-2(1H)-one]	12.9 ± 0.35 nM	11 ± 2 nM	46.4 ± 3.61 nM	27 ± 6 nM	20 ± 2 nM	44.2 ± 4.21 nM	13 ± 5 nM	26 nM	6 ± 2 nM	33 ± 9 nM	6.29 ± 1.43 nM	18 ± 3 nM	22 ± 3 nM	22 ± 4 nM
